ChEMBL document CHEMBL4376854, “Investigation of the Adrenergic and Opioid Binding Affinities, Metabolic Stability, Plasma Protein Binding Properties, and Functional Effects of Selected Indole-Based Kratom Alkaloids” (J Med Chem, 2020)
The source made the active and inactive calls. The calls are words filed in the database; no cut-off is given here.

Assays:
[1] = target: T1, Delta-type opioid receptor (Homo sapiens, UniProt P41143); assay: Displacement of [3H]DADLE from human recombinant delta opioid receptor expressed in rat Chem-1 (RBL) cell membranes at 100 nM incubated for 60 mins relative to control
T1 sequence (P41143 whole entry): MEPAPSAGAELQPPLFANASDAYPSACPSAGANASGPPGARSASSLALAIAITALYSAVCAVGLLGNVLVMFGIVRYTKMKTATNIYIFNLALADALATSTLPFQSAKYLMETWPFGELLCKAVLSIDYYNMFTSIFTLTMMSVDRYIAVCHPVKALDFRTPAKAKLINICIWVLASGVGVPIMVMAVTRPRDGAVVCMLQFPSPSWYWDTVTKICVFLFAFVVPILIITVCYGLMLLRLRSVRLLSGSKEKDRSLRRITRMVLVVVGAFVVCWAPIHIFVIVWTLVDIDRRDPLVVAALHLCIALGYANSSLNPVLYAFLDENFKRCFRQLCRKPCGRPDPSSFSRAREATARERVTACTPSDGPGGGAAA

[2] = target: T1, Delta-type opioid receptor; assay: Displacement of [3H]DADLE from human recombinant delta opioid receptor expressed in rat Chem-1 (RBL) cell membranes at 10000 nM incubated for 60 mins relative to control
[3] = target: T2, Alpha-1B adrenergic receptor (Homo sapiens, UniProt P35368); assay: Displacement of [3H]prazosin from human recombinant adrenergic alpha-1B receptor expressed in CHO cell membranes incubated for 60 mins
T2 sequence (P35368 whole entry): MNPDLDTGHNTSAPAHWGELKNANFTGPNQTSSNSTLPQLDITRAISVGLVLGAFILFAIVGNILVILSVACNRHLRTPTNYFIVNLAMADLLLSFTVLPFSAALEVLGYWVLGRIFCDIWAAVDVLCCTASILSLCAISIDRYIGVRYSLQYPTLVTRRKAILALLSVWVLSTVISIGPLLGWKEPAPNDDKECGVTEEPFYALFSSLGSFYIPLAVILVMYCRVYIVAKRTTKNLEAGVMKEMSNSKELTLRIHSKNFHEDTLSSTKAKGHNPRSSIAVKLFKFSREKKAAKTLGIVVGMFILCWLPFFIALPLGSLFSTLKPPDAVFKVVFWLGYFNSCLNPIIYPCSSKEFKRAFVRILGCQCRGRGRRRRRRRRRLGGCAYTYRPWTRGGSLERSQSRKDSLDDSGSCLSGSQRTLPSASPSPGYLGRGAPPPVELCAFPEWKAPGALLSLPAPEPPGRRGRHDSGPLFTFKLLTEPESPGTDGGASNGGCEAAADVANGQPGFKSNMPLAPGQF

[4] = target: T3, Alpha-1D adrenergic receptor (Homo sapiens) (UniProt P25100); conditions: CHO, 100 nM
T3 sequence (whole entry): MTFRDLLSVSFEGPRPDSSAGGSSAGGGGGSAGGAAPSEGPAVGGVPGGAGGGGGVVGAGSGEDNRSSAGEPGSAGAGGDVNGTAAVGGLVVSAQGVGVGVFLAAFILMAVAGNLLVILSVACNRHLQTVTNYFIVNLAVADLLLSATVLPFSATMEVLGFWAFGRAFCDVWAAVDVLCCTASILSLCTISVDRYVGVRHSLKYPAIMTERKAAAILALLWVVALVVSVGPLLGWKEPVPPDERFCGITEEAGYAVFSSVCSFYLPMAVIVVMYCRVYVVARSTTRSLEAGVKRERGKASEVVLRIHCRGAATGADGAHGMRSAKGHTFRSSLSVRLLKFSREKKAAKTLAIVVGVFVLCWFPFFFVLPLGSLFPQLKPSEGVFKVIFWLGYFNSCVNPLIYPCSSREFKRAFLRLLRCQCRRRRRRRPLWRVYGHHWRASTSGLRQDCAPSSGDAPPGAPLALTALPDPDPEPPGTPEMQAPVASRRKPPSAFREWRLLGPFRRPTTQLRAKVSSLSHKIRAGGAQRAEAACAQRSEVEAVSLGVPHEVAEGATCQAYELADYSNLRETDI

[5] = target: T3, Alpha-1D adrenergic receptor (Homo sapiens); conditions: CHO, 10000 nM
[6] = human, microsomes, 1 h
[7] = target: T4, Alpha-2A adrenergic receptor (Homo sapiens, UniProt P08913); assay: biochemical
T4 sequence (P08913 whole entry): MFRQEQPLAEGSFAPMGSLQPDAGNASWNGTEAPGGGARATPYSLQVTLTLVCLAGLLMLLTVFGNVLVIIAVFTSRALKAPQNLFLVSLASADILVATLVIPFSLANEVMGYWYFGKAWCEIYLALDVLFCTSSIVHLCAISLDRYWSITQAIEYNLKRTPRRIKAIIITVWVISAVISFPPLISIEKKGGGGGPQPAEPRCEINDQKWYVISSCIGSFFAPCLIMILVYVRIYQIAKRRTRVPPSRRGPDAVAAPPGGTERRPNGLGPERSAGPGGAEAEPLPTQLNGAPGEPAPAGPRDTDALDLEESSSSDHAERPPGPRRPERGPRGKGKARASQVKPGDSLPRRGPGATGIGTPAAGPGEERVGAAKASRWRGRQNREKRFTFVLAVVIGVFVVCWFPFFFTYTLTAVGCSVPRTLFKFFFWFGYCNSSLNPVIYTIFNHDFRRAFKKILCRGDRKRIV

[8] = target: Kappa-type opioid receptor (Homo sapiens, UniProt P41145); assay: Agonist activity at human recombinant kappa opioid receptor expressed in rat RBL cells assessed as stimulation of intracellular calcium levels incubated at room temperature by fluorimetry; assay type: functional, cell-based
Chain of Kappa-type opioid receptor (P41145 whole entry): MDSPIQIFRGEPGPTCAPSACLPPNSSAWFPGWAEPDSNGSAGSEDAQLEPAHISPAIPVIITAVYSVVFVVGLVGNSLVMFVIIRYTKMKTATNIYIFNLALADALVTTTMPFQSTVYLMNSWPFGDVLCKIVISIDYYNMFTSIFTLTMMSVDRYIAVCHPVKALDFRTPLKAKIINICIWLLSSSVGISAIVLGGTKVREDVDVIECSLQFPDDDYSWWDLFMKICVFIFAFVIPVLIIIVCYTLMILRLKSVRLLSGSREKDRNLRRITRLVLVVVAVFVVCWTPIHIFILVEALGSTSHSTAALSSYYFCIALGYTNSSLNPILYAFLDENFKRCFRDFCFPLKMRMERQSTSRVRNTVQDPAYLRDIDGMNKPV

[9] = target: T5, Alpha-1B adrenergic receptor (Homo sapiens) (UniProt P35368); conditions: CHO, 100 nM
T5 sequence (whole entry): T2 sequence (P35368 whole entry)

[10] = target: T6, Alpha-2B adrenergic receptor (Homo sapiens) (UniProt P18089); conditions: CHO, 100 nM
T6 sequence (whole entry): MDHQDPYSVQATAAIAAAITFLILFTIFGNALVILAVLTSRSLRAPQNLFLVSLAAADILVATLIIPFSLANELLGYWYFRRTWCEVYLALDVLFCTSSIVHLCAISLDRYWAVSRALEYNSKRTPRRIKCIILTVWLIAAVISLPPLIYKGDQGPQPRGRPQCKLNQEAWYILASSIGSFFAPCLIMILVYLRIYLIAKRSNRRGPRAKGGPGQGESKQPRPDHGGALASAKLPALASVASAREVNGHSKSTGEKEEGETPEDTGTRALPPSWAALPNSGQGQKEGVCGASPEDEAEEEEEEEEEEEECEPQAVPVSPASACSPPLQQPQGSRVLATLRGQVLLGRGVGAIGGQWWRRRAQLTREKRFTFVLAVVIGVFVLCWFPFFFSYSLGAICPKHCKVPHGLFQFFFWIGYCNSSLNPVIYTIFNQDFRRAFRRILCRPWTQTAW

SMILES: CC[C@@H]1CN2CCc3c([nH]c4cccc(OC)c34)[C@@H]2C[C@@H]1/C(=C\OC)C(=O)OC
- inhibition [1]: 0.4%
- inhibition [2]: 18.3%
- Ki [3]: 4.77 µM
- inhibition [4]: -2.1%
- inhibition [5]: 57.9%
- Kel [6]: 0.0347 min⁻¹
- Ki [7]: 4.72 µM

SMILES: CC[C@@H]1CN2CCc3c([nH]c4cccc(OC)c34)[C@H]2C[C@@H]1/C(=C\OC)C(=O)OC
- inhibition [1]: 0.6%
- inhibition [2]: 69.2%
- Activity [8]: inactive
- inhibition [9]: 25.2%
- inhibition [4]: 6.3%
- inhibition [10]: 0%
- inhibition [5]: 70.5%
- Kel [6]: 0.0166 min⁻¹
